# Measured values from patent US20190292521A1, “COMPOSITION FOR PROMOTING GROWTH OF STEM CELLS COMPRISING PHYTOSPHINGOSINE-1-PHOSPHATE OR DERIVATIVES THEREOF, AND COMPOSITION FOR CULTURING MEDIA OF STEM CELLS COMPRISING SAME” (AXCESO BIOPHARMA CO., LTD., priority 2016, published 2019).
# Read-outs that look alike come from different tables or passages of the source.
# Assays:
# Type in all cases: cell-based
# [1] = tested on: human-derived adipose stem cells; experiment: Stem cell viability according to concentration of fetal bovine serum (serum-free or low-serum medium); conditions: read-out: viability as compared with 10% fetal bovine serum
# Description: Human-derived adipose stem cells were cultured in DMEM medium having different concentrations of fetal bovine serum at 37° C. under 5% CO2. After culturing for 24 hours, the cells were washed twice with PBS at 37° C. to remove the serum components. Then, the cells were cultured in new DMEM medium containing 1 μM P1P and 1% fetal bovine serum. After 4 days, the absorbance was measured at 450 nm using an Ez-Cytox Cell Viability Assay Kit (Daeil Biotech) to measure the viability of stem cells according the concentration of fetal bovine serum and P1P. For the control group, an experiment was performed under the same conditions as above except that P1P was not included.
# [2] = tested on: human-derived adipose stem cells; experiment: Growth promoting capacity on human-derived adipose stem cells; conditions: cultured for 2 days, different concentrations; optimal effect at 10 nM and 100 nM, FIG. 2
# Description: (§1) Human mesenchymal stem cells were cultured in DMEM medium (Invitrogen) containing 10% fetal bovine serum and 1% penicillin/streptomycin at 37° C. under 5% CO2, and the medium was changed every 3 days. After culturing the cells for 24 hours, P1P, cyclic P1P, and NAPS-1-P were dissolved in DMSO (Sigma) to a concentration of 2 mM, and appropriately diluted and added to the medium such that the final concentration was 1 μM. The absorbance was measured at 450 nm using Ez-Cytox at 24 hours (1 day), 48 hours (2 days), 120 hours (5 days) and 168 hours (7 days) after the addition, and the proliferation capacity of the stem cells according to P1P, cyclic P1P and NAPS-1 were measured. For the control group, an experiment was performed under the same conditions as above except that P1P, cyclic P1P and NAPS-1-P were not included.
# In addition, the growth promoting-capacity of human-derived adipose stem cells was examined.
# [3] = tested on: Human mesenchymal stem cells; experiment: Measurement of stem cell proliferation capacity (Ez-Cytox, absorbance 450 nm); conditions: 1 uM; for increase of proliferation effect: cultured for 7 days, vs control without compound; for proliferation of stem cells: human mesenchymal stem cells, FIG. 1
# Description: as §1
# [4] = tested on: human-derived adipose stem cells; experiment: Viability of stem cells with oxidative stress induced by hydrogen peroxide (H2O2); conditions: 6 hours after H2O2
# Description: Human-derived adipose stem cells were cultured in DMEM medium containing 10% fetal bovine serum and 1% penicillin/streptomycin at 37° C. under 5% CO2. After culturing the cells for 24 hours, P1P, cP1P and NAPS-1-P were dissolved in DMSO to a concentration of 2 mM, and appropriately diluted and added to the medium such that the final concentrations were 10 nM, 100 nM, 1000 nM. After 1 hour of culture, 350 μM of H2O2 was added to the stem cells and cultured. After 6 hours, the absorbance was measured at 450 nm using Ez-Cytox, and the effect of P1P and derivatives thereof on the viability of stem cells against oxidative stress was measured. For the control group, an experiment was performed under the same conditions as above except that P1P, cyclic P1P, and NAPS-1-P were not included.
# [5] = tested on: human-derived adipose stem cells; experiment: Osteogenic differentiation capacity (Alizarin Red S staining); conditions: osteogenic differentiation medium
# Description: Human-derived adipose stem cells were cultured in DMEM medium containing 10% fetal bovine serum and 1% penicillin/streptomycin at 37° C. under 5% CO2. After 24 hours of culture, P1P and derivatives thereof were diluted with the medium and added. After 24 hours of culture, the medium was replaced with a differentiation medium and changed with a differentiation medium every 3 days. The cells were cultured in alpha-DEM medium containing 10% fetal bovine serum, 10 nM dexamethasone, 0.2 mM ascorbic acid, 10 mM beta-glycerol phosphate and 1% penicillin/streptomycin at 37° C. under 5% CO2 as a composition for the differentiation medium. After 2 to 4 weeks, the stem cells were fixed and stained with Alizarin Red S. After removing the stem cell culture medium, the cells were washed 3 times with PBS, and after removal of PBS, the cells were fixed using 4% formaldehyde solution for 20 minutes at room temperature. After washing the cells 3 times with PBS, the cells were treated with a 2% Alizarin Red S solution for 20 minutes. […] For the control group, an experiment was performed under the same conditions as above except that P1P, cyclic P1P, and NAPS-1-P were not included.
# [6] = fetal bovine serum reduced to 2%
Structure (SMILES),"viability at 1 µM [1, 6] [%]",viability at 1 µM ([1]; serum-free medium) [%],cell growth / proliferation effect [2],increase of proliferation effect [3] [fold],proliferation of stem cells [3],Cell viability (%) by H2O2 treatment (350 uM) ([4]; compound 10 nM) [%],Cell viability (%) by H2O2 treatment (350 uM) ([4]; compound 100 nM) [%],Cell viability (%) by H2O2 treatment (350 uM) ([4]; compound 1000 nM) [%],osteogenic differentiation capacity [5]
"CCCCCCCCCCCCCC[C@@H](O)[C@@H](O)[C@H](COP(=O)(O)O)NC(C)=O [NAPS-1-P, N-acetyl phytosphingosine-1-phosphate]",70 to 80,~50,showed a higher proliferation effect,2,promoted the proliferation of stem cells to a similar level,75,83,86,
"CCCCCCCCCCCCCC[C@@H](O)[C@H]1OP(=O)(O)OC[C@@H]1N [cP1P, O-cyclic P1P]",70 to 80,~50,showed a higher proliferation effect,2,promoted the proliferation of stem cells to a similar level,77,84,86,remarkably improved
